Patent publication US7601737B2, “Isotopically substituted proton pump inhibitors” (priority 2005, dated 2009)
Like-named read-outs stand apart in the source and are kept apart here.

Experiments:
[1] = Metabolisation in liver microsomes (mini pig); format: in vitro ADME
Protocol: (§1) Pantoprazole or examples 1 or 2 (10 μM each) were incubated with liver microsomes (source: all from GenTest except Mini Pig from TEBU),incubation in 1 mg/ml protein, 100 mM Tris-HCl, pH 7.4, 1 mM NADPH2). Reaction was terminated after 90 minutes by liquid nitrogen, the parent compound was detected by HPLC (10 mM KH2PO4, pH 7.4, acetonitril gradient 20-44%).

[2] = Metabolisation in liver microsomes (guinea pig); format: in vitro ADME; conditions: Guinee pig liver microsomes
Protocol: as §1

[3] = Metabolisation in liver microsomes (human); format: in vitro ADME
Protocol: as §1

[4] = Metabolisation in liver microsomes (mouse); format: in vitro ADME
Protocol: as §1

[5] = Metabolisation in liver microsomes (dog); format: in vitro ADME
Protocol: as §1

[6] = Metabolisation in liver microsomes (monkey); format: in vitro ADME
Protocol: as §1

[7] = Metabolisation in liver microsomes (rat); format: in vitro ADME
Protocol: as §1

in vitro [8] = conditions: human, hepatocytes
Protocol: (§3) Following the evaluation of the metabolic clearance of the compounds according to the invention via P450 enzymes, the formation kinetics of the main metabolite identified in humans, i.e. M2 (5-(difluoromethoxy)-2-[[(3-methoxy-4-sulfate-2-pyridyl)-methyl]sulfinyl]-1H-benzimidazole) was determined. Because the generation of M2 involves the oxidation of the 4-methoxy-pyridyl group by CYP2C19 and subsequent conjugation with 3′-phosphoadenosine-5′-phosphosulfate (PAPS) by an unidentified sulphotransferase, human cryopreserved hepatocytes were used since both phase I and phase II enzymes are functional in this in vitro system.
(§4) M2 formation rate under these conditions was linear up to 60 min. The M2 formation rate was determined at nine different compound concentrations (0, 0.5, 1.0, 2.5, 5.0, 10.0, 25.0, 50.0 and 100 μMol/L) incubated in duplicate for 60 min at 37° C. M2 was quantified using LC-MS/MS. M2 isolated from human urine was used as an external standard. The concentration to reach the half-maximal formation rate (KM-value) and the maximal formation rate (Vmax) were obtained by non-linear regression analysis using the Michaelis-Menten equation. The intrinsic clearance (Clint) was obtained dividing Vmax over KM.

[9] = tested on: human cryopreserved hepatocytes
Protocol: as §3, §4

[10] = tested on: human cryopreserved hepatocytes; test: in vitro; conditions: for % Σ Clint rac. Omeprazole: hepatocytes
Source text: (§2) 5-hydroxy-omeprazole was quantified using LC-MS/MS.

in vitro [11] = conditions: human, hepatocytes; remark: listed apart in the source
Source text: as §2

[12] = Table 2, relative to rac. pantoprazole
[13] = Table 3, pooled human hepatocytes, M2 formation, Vmax over KM
[14] = Table 3, relative to rac. pantoprazole

With [2H]C([2H])([2H])Oc1ccnc(C[S+]([O-])c2nc3cc(OC(F)F)ccc3[nH]2)c1OC (racemic) [Example 1, (R/S)-5-Difluoromethoxy-2-[(3-methoxy-4-trideuteriomethoxy-2-pyridinyl)methylsulfinyl]-1H-benzimidazole] the “Percent of compound metabolized” value ([1]; 10 μM, 90 minutes incubation) was 19%, the “Ratio of percent metabolized, Example/Pantoprazole” value ([1]; 90 minutes) was 0.73 and the “Percent of compound metabolized” value ([2]; 10 μM, 90 minutes incubation) was 59%. For the same compound, the “Ratio of percent metabolized, Example/Pantoprazole” value ([2]; 90 minutes) was 0.75, the “Percent of compound metabolized” value ([3]; 10 μM, 90 minutes incubation) was 14% and the “Ratio of percent metabolized, Example/Pantoprazole” value ([3]; 90 minutes) was 0.50. The “Percent of compound metabolized” value ([4]; 10 μM, 90 minutes incubation) was 36%, the “Ratio of percent metabolized, Example/Pantoprazole” value ([4]; 90 minutes) was 0.58 and the “Percent of compound metabolized” value ([5]; 10 μM, 90 minutes incubation) was 12%. For the same compound, the “Ratio of percent metabolized, Example/Pantoprazole” value ([5]; 90 minutes) was 0.60, the “Percent of compound metabolized” value ([6]; 10 μM, 90 minutes incubation) was 47% and the “Ratio of percent metabolized, Example/Pantoprazole” value ([6]; 90 minutes) was 0.64. The “Percent of compound metabolized” value ([7]; 10 μM, 90 minutes incubation) was 35% and the “Ratio of percent metabolized, Example/Pantoprazole” value ([7]; 90 minutes) was 0.57.
With [2H]C([2H])([2H])Oc1c(OC)ccnc1C[S+]([O-])c1nc2cc(OC(F)F)ccc2[nH]1 (racemic) [Example 22, rac-5-Difluoromethoxy-2-[(4-methoxy-3-trideuteriomethoxy-2-pyridinyl)methylsulfinyl]-1H-benzimidazole] the hepatocyte CLint (in vitro [8]) was 22 µL/min/1e6 cells, the “Substrate concentrations at which formation of M2 appeared to be inhibited” value ([9]; human, 60 min) was “above 100 μM” and the “% Σ Clint rac. Pantoprazole” value ([9]; human, hepatocytes) was 79%. For the same compound, the “% Σ Clint rac. pantoprazole” value ([9]; human, hepatocytes) was 79% and the “Intrinsic clearance (Clint)” value ([9]; human, hepatocytes) was 22.0 μl/min/10^6 cells.
In the case of O.[2H]C([2H])Oc1ccnc(C[S+]([O-])c2nc3cc(OC(F)F)ccc3[nH]2)c1OC.[Na] (racemic) [Example 24, rac-5-Difluoromethoxy-2-[(3-methoxy-4-dideuteriomethoxy-2-pyridinyl)methylsulfinyl]-1H-benzimidazole sodium salt mono hydrate], the hepatocyte CLint (in vitro [8]) is reported as 13.5 µL/min/1e6 cells, the “% Σ Clint rac. pantoprazole” value [9, 12] is reported as 48% and the “Intrinsic clearance (Clint)” value [9, 13] is reported as 13.5 μl/min/10^6 cells. The “% Σ Clint rac. Pantoprazole” value [9, 14] was 48%.
In the case of O.[2H]COc1ccnc(C[S+]([O-])c2nc3cc(OC(F)F)ccc3[nH]2)c1OC.[Na] (racemic) [Example 25, rac-5-Difluoromethoxy-2-[(3-methoxy-4-monodeuteriomethoxy-2-pyridinyl)methylsulfinyl]-1H-benzimidazole sodium salt mono hydrate], the hepatocyte CLint (in vitro [8]) is reported as 17.7 µL/min/1e6 cells, the “% Σ Clint rac. pantoprazole” value [9, 12] is reported as 63% and the “Intrinsic clearance (Clint)” value [9, 13] is reported as 17.7 μl/min/10^6 cells. The “% Σ Clint rac. Pantoprazole” value [9, 14] was 63%.
In the case of O.[2H]C([2H])([2H])Oc1ccnc(C[S+]([O-])c2nc3cc(OC(F)F)ccc3[nH]2)c1OC.[Na] (racemic) [Example 32, rac-5-Difluoromethoxy-2-[(3-methoxy-4-trideuteriomethoxy-2-pyridinyl)methylsulfinyl]-1H-benzimidazole sodium salt mono hydrate], the hepatocyte CLint (in vitro [8]) is reported as 5.1 µL/min/1e6 cells and the “% Σ Clint rac. Pantoprazole” value [9, 14] is reported as 18%.
With [2H]C([2H])([2H])Oc1ccc2[nH]c([S+]([O-])Cc3ncc(C)c(OC)c3C)nc2c1 (racemic) [Example 46, rac-5-Trideuteriomethoxy-2-[(4-methoxy-3,5-dimethyl-2-pyridinyl)methylsulfinyl]-1H-benzimidazole] the “Reduction in the 5-hydroxy-omeprazole formation rate” value [10] was “not found”, the “% Σ Clint rac. Omeprazole” value ([10]; human) was 107% and the hepatocyte CLint (in vitro [11]) was 2.1 µL/min/1e6 cells.
In the case of [2H]C([2H])([2H])Oc1ccc2[nH]c([S+]([O-])Cc3ncc(C)c(OC([2H])([2H])[2H])c3C)nc2c1 (racemic) [Example 47, rac-5-Trideuteriomethoxy-2-[(3,5-dimethyl-4-trideuteriomethoxy-2-pyridinyl)methylsulfinyl]-1H-benzimidazole], the “5-hydroxy-omeprazole formation rate, reduction compared to non-deuterated omeprazole” value ([10]; human, 60 min) is reported as “about 1.5 fold”, the “% Σ Clint rac. Omeprazole” value ([10]; human) is reported as 69% and the hepatocyte CLint (in vitro [11]) is reported as 1.4 µL/min/1e6 cells.
With [2H]C([2H])([2H])Oc1c(C)cnc(C[S+]([O-])c2nc3cc(OC)ccc3[nH]2)c1C (racemic) [Example 48, rac-5-Methoxy-2-[(3,5-dimethyl-4-trideuteriomethoxy-2-pyridinyl)methylsulfinyl]-1H-benzimidazole] the “5-hydroxy-omeprazole formation rate, reduction compared to non-deuterated omeprazole” value ([10]; human, 60 min) was “about 1.5 fold”, the “Reduction in the 5-hydroxy-omeprazole formation rate” value ([10]; human, 60 min) was “Reduction in the 5-hydroxy-omeprazole formation rate was observed” and the “% Σ Clint rac. Omeprazole” value ([10]; human) was 69%. For the same compound, the hepatocyte CLint (in vitro [11]) was 1.4 µL/min/1e6 cells.
For COc1ccnc(C[S+]([O-])c2nc3ccc(OC(F)F)cc3[nH]2)c1OC (racemic) [rac. pantoprazole Na 1.5 H2O, 5-difluoromethoxy-2-[(3,4-dimethoxy-2-pyridinyl)methylsulphinyl]-1H-benzimidazole, reference compound], the hepatocyte CLint (in vitro [8]) was 27.9 µL/min/1e6 cells, the “% Σ Clint rac. Pantoprazole” value ([9]; human, hepatocytes) was 100% and the “% Σ Clint rac. pantoprazole” value ([9]; human, hepatocytes) was 100%. For the same compound, the “Intrinsic clearance (Clint)” value ([9]; human, hepatocytes) was 27.9 μl/min/10^6 cells.
With COc1ccnc(C[S@@+]([O-])c2nc3cc(OC(F)F)ccc3[n-]2)c1OC.COc1ccnc(C[S@@+]([O-])c2nc3cc(OC(F)F)ccc3[n-]2)c1OC.O.O.O.[Na+].[Na+] [(R)-pantoprazole Na 1.5 H2O, reference compound] the “% Σ Clint (R)-pantoprazole” value ([9]; human, hepatocytes) was 100% and the “Intrinsic clearance (Clint)” value ([9]; human, hepatocytes) was 25.7 μl/min/10^6 cells.
With COc1ccc2nc([S@@+]([O-])Cc3ncc(C)c(OC)c3C)[nH]c2c1 [(S)-omeprazole sodium, (S)-5-methoxy-2-[(4-methoxy-3,5-dimethyl-2-pyridinyl)methylsulphinyl]-1H-benzimidazole, reference compound] the “% Σ Clint rac. Omeprazole” value ([10]; human) was 37% and the hepatocyte CLint (in vitro [11]) was 0.7 µL/min/1e6 cells.
In the case of COc1ccnc(C[S@+]([O-])c2nc3cc(OC(F)F)ccc3[n-]2)c1OC.COc1ccnc(C[S@+]([O-])c2nc3cc(OC(F)F)ccc3[n-]2)c1OC.O.O.O.[Na+].[Na+] [(S)-pantoprazole Na 1.5 H2O, reference compound], the “% Σ Clint (S)-pantoprazole” value ([9]; human, hepatocytes) is reported as 100% and the “Intrinsic clearance (Clint)” value ([9]; human, hepatocytes) is reported as 16.1 μl/min/10^6 cells.
For [2H]C([2H])([2H])Oc1ccnc(C[S@+]([O-])c2nc3cc(OC(F)F)ccc3[nH]2)c1OC [Example 5, Sodium (S)-{[5-(difluoromethoxy)]-2-[(3-methoxy-4-trideuteriomethoxy-2-pyridinyl)methylsulphinyl]-1H-benzimidazolide} hydrate], the “% Σ Clint (S)-pantoprazole” value ([9]; Table 2, relative to (S)-pantoprazole) was 21%.
For O.O.O.[2H]C([2H])([2H])Oc1ccnc(C[S@@+]([O-])c2nc3cc(OC(F)F)ccc3[nH]2)c1OC.[Na] [Example 30, (R)-5-Difluoromethoxy-2-[(3-methoxy-4-trideuteriomethoxy-2-pyridinyl)methylsulfinyl]-1H-benzimidazole sodium salt trihydrate], the “% Σ Clint (R)-pantoprazole” value ([9]; Table 2, relative to (R)-pantoprazole) was 21%.
For [2H]C([2H])([2H])Oc1ccnc(C[S@+]([O-])c2nc3cc(OC(F)F)ccc3[nH]2)c1OC.[Na] [Example 36, (S)-5-Difluoromethoxy-2-[(3-methoxy-4-trideuteriomethoxy-2-pyridinyl)methylsulfinyl]-1H-benzimidazole sodium salt], the hepatocyte CLint (in vitro [8]) was 3.4 µL/min/1e6 cells and the “% Σ Clint (S)-pantoprazole” value ([9]; Table 3, relative to (S)-pantoprazole) was 21%.
For [2H]C([2H])([2H])Oc1ccnc(C[S@@+]([O-])c2nc3cc(OC(F)F)ccc3[nH]2)c1OC.[Na] [Example 37, (R)-5-Difluoromethoxy-2-[(3-methoxy-4-trideuteriomethoxy-2-pyridinyl)methylsulfinyl]-1H-benzimidazole sodium salt], the hepatocyte CLint (in vitro [8]) was 5.5 µL/min/1e6 cells and the “% Σ Clint (R)-pantoprazole” value ([9]; Table 3, relative to (R)-pantoprazole) was 21%.
With [2H]C([2H])([2H])Oc1ccc2[nH]c([S@@+]([O-])Cc3ncc(C)c(OC([2H])([2H])[2H])c3C)nc2c1.[Na] [Example 49, (S)-5-Trideuteriomethoxy-2-[(3,5-dimethyl-4-trideuteriomethoxy-2-pyridinyl)methylsulfinyl]-1H-benzimidazole sodium salt] the “Change of intrinsic clearance (Clint) of 5-hydroxy-omeprazole” value [10] was “did not alter the intrinsic clearance”, the “% Σ Clint rac. Omeprazole” value ([10]; human) was 40% and the hepatocyte CLint (in vitro [11]) was 0.8 µL/min/1e6 cells.
With “Sodium (R/S)-{[5-(difluoromethoxy)]-2-[(3-methoxy-4-trideuteriomethoxy-2-pyridinyl)methylsulphinyl]-1H-benzimidazolide} hydrate [Example 6]” the “Intrinsic clearance (Clint)” value ([9]; Table 2, pooled human hepatocytes, M2 formation, Vmax over KM) was 5.1 μl/min/10^6 cells, the “% Σ Clint rac. pantoprazole” value [9, 12] was 20% and the “Effect of increasing number of [2H] atoms in the 4-methoxy-pyridyl position on M2 formation rates” value ([9]; series [1H], [2H1], [2H2], [2H3]) was “decreased M2 formation rates”.
